# Reference: patent publication US20260207564A1, “DOSAGE REGIME OF ORFORGLIPRON FOR TREATING A SUBJECT WITH TYPE 2 DIABETES (T2D), OBESITY, OR OVERWEIGHT WITH AT LEAST ONE WEIGHT RELATED COMORBIDITY” (Eli Lilly and Company, priority 2022, published 2026)
# Columns and labels:
# [1] = Phase 1 studies of clinical pharmacology, PK and PD in healthy volunteers and in participants with T2D; format: in vivo, human
# Description: The clinical pharmacology, PK, and PD of Compound 1a were studied in 2 completed Phase 1 studies in healthy volunteers and in participants with T2D).
# [2] = format: in vivo, human; conditions: 26 weeks, 3 mg to 45 mg QD
# Protocol: Two Phase 2 studies have evaluated the safety and efficacy of Compound 1a for the treatment of T2D and another for treatment of obesity or overweight with at least one weight related comorbidity.
# The 36 and 45 mg cohorts were subdivided in a 36 mg-1 and 36 mg-2 as well as 45 mg-1 and 45 mg-2 respectively, as different starting doses, dose escalations and dose escalation steps were investigated in these subgroup cohorts (FIG. 4).
# Eligible male or female participants were >18 years of age with T2D with a HbA1c 7.0% to 10.5% and a body mass index (BMI) of ≥23 kg/m2, treated with diet and exercise alone or with a stable dose of metformin and with a stable body weight (≤5% body weight gain and/or loss) for at least 3 months prior to screening/Visit 1.
# The study period included a 2-week screening/lead in period and a 26-week treatment period. During the treatment period, doses were escalated for all treatment groups. The dose escalation period ranged from 4 to 12 weeks depending on dose group. The initial dose was 2 or 3 mg followed by additional escalation steps depending on assigned cohort (FIG. 4). […] All participants were provided healthy eating and exercise education by study personnel throughout the trial.
# Key Safety and tolerability endpoints included the frequency of patient- and investigator-reported adverse events, rate and incidence of hypoglycaemia events (glucose <70 mg/dL [3.9 mmol/L] and ≥54 mg/dL [3.0 mmol/L], or glucose <54 mg/dL [3.0 mmol/L]), and change in safety laboratory parameters, electrocardiogram, and vital signs.
# The estimand used for efficacy analyses was an “efficacy estimand”, representing the average treatment effect for the randomized population if the treatment was administered as intended, thus including data from all randomized participants who received at least one dose of study drug and excluding data after permanent discontinuation of study drug. All tests of treatment effects were conducted at a 2-sided alpha level of 0.05 without adjustment for multiple comparisons, and 2-sided 95% CIs were calculated.
# Safety analyses were conducted by comparing safety of OFG with placebo and with dulaglutide irrespective of adherence to study drug. The safety analyses were conducted using the safety analysis set, which includes all randomized participants who received at least one dose of study drug. The results were presented in summary statistics, point estimates, and 95% confidence intervals along with p-values for treatment comparisons.
# [3] = Phase 2 study in obesity or overweight with at least one weight related comorbidity, 36 weeks (Example 4A); format: in vivo, human
# Description: The primary endpoint was the percentage change in body weight from baseline to week 26, with a secondary 36-week endpoint.
# A 36-week Phase 2, multicenter, randomized, double-blind, parallel, placebo-controlled study was designed to examine the efficacy and safety of 4 dose levels of once daily administered Compound 1a, compared with once daily administered placebo in participants with obesity or overweight with at least one weight related comorbidity. A total of 272 patients were randomized 5:5:5:3:3:3:3 to once daily placebo or Compound 1a maintenance doses of 12 mg, 24 mg, 36 mg (36-1, 36-2) or 45 mg (45-1, 45-2) treatment groups. The 36 and 45 mg cohorts were subdivided in a 36 mg-1 and 36 mg-2 as well as 45 mg-1 and 45 mg-2 respectively, as different starting doses, dose escalations and dose escalation steps were investigated in these subgroup cohorts (FIG. 2). The different dose escalations were performed to assess the maintenance dose and titration steps for future trials.
# Eligible male or female participants were >18 years of age with a HbA1c<6.5% (48 mmol/mol) and a BMI of ≥30 kg/m2 or ≥27 kg/m2 and <30 kg/m2 with at least 1 of the following weight-related comorbidities: hypertension, dyslipidemia, cardiovascular disease, or obstructive sleep apnea.
# The study period included a 2-week screening/lead in period, a 36-week treatment period followed by a 2 week off-drug safety follow-up period. During the treatment period, doses were escalated for all treatment groups. The dose escalation period ranged from 0 to 16 weeks depending on dose group. The initial dose was 2 or 3 mg followed by additional escalation steps depending on assigned cohort (FIG. 2). Compound 1a or matching placebo was administered daily by oral capsule. All participants were provided healthy eating and exercise education by study personnel throughout the trial.
# The primary endpoint was percent change in body weight from baseline at week 26. Secondary endpoints included percent change in body weight from baseline at week 36, change from baseline in body weight (kg), BMI (kg/m2) and waist circumference (cm), and percentage of study participants who achieved ≥5% body weight (kg) reduction, and ≥10% body weight (kg) reduction, at week 26 and week 36. Key safety endpoints included adverse events, blood pressure, heart rate, safety laboratory measures, PK parameters, and patient-reported outcomes.
# A sample size of 270 participants was calculated to provide at least 90% power for testing superiority of Compound 1 versus placebo in the primary endpoint. The estimand used for efficacy analyses was an “efficacy estimand”, representing the average treatment effect for the randomized population if the treatment was administered as intended, thus including data from all randomized participants who received at least one dose of study drug and excluding data after permanent discontinuation of study drug. All tests of treatment effects were conducted at a 2-sided alpha level of 0.05 without adjustment for multiple comparisons, and 2-sided 95% CIs were calculated. To test efficacy of Compound 1a with adequate statistical power, for 36 mg and 45 mg the evaluation of the primary endpoint was made by pooling 2 dose escalation regimens (combining 36 mg-1 and 36 mg-2, for 36 mg, and combining 45 mg-1 and 45 mg-2, for 45 mg).
# Safety analyses were conducted by comparing safety of Compound 1a with placebo irrespective of adherence to study drug. The safety analyses were conducted using the safety analysis set, which includes all randomized participants who received at least one dose of study drug. The results were presented in summary statistics, point estimates, and 95% confidence intervals along with p-values for treatment comparisons.
# [4] = after 12 weeks of treatment, 9 mg QD to 45 mg QD, people with T2D
smiles,measurement,setting,value
"Cc1cc(-n2nc3c(c2-n2ccn(-c4ccc5c(cnn5C)c4F)c2=O)[C@H](C)N(C(=O)c2cc4cc([C@H]5CCOC(C)(C)C5)ccc4n2[C@@]2(c4noc(=O)[nH]4)C[C@@H]2C)CC3)cc(C)c1F [Compound 1a, 3-[(1S,2S)-1-[5-[(4S)-2,2-dimethyloxan-4-yl]-2-[(4S)-2-(4-fluoro-3,5-dimethylphenyl)-3-[3-(4-fluoro-1-methylindazol-5-yl)-2-oxoimidazol-1-yl]-4-methyl-6,7-dihydro-4H-pyrazolo[4,3-c]pyridine-5-carbonyl]indol-1-yl]-2-methylcyclopropyl]-4H-1,2,4-oxadiazol-5-one]",PK of Compound 1a plasma concentration increase with dose,[1]; 9 mg QD to 45 mg QD dose range,approximately proportional to the increase of dose
same,PK profile,[1]; Phase 1 studies,appropriate for once daily oral dosing
same,most reported AEs,[1]; Phase 1 studies,"nausea, vomiting, and constipation"
same,improvements in HbA1c,[1]; [4],up to −1.4%
same,weight loss,[1]; [4],up to −5.8 kg
same,HbA1c treatment difference vs placebo,[2],−1.7%
same,mean changes from baseline in HbA1c,[2],up to −2.1%
same,mean weight loss,[2],up to 10 kg
same,weight loss treatment difference vs placebo,[2],8 kg
same,percentage of patients who had weight reduction of 15% or more,"[3]; 36 weeks, 45 mg",48%
same,percentage of patients who had weight reduction of 10% or more,"[3]; 36 weeks, across dose groups",47% to 75
same,percentage of patients who reported AEs,[3]; across dose groups,86% to 90.2
same,mean reduction in systolic blood pressure (SBP),"[3]; baseline to week 26, across dose groups",−4.8 to −10.5 mmHg
same,mean reduction in systolic blood pressure (SBP),"[3]; baseline to week 36, across dose groups",−6.7 to −10.5 mmHg
same,tolerability by escalation interval,[3]; dose escalated every 3 weeks compared to every 1-2 weeks,superior tolerability
same,Liver function tests compared with placebo,[3]; in vivo,not significantly increased
same,Most common TEAEs,[3]; in vivo,"GI related (nausea, vomiting, diarrhea and constipation)"
same,diastolic blood pressure (DBP) compared to placebo,[3]; in vivo,No differences were noted
same,health-related quality of life and physical activity readouts versus placebo,[3]; in vivo,greater improvements
same,most common adverse events,[3]; in vivo,"gastrointestinal, mild to moderate in severity"
same,most common events reported,[3]; in vivo,"Nausea, constipation, vomiting, diarrhea, and eructation"
same,prespecified weight and cardiometabolic measures,[3]; in vivo,improvements in all prespecified weight and cardiometabolic measures
same,mean percent weight loss compared to placebo,[3]; primary 26-week endpoint,11%
same,mean percent weight loss from baseline,[3]; primary 26-week endpoint,up to 13%
same,GI AE events by starting dose,[3]; starting dose of 3 mg versus 2 mg starting dose,higher GI AE events
same,mean percentage change in body weight from baseline,"[3]; week 26, across dose groups 12-45 mg",−8.6% to −12.6
same,HDL cholesterol versus placebo,[3]; week 36,no significant change
same,"changes in the fasting lipids (triglycerides, total cholesterol, non-HDL cholesterol, LDL and VLDL)",[3]; week 36,Benefits with Compound 1a were noted
same,mean percentage change in body weight from baseline,"[3]; week 36, across dose groups 12-45 mg",−9.4% to −14.7
